Measurements as given in ChEMBL document CHEMBL5715954, “Silencing c-Myc translation as a therapeutic strategy through targeting PI3Kδ and CK1ε in hematological malignancies” (Blood, 2017).

Experiments:
Design in all cases: scale not given: the % may be the effect or the level left
[1] = molecular target: T1, Dual specificity tyrosine-phosphorylation-regulated kinase 3 (Homo sapiens) (UniProt O43781); experiment: Inhibition of human DYRK3 assessed as enzyme activity at 1 uM using RRRFRPASPLRGPPK as substrate preincubated for 20 mins followed by [gamma-33P]-ATP addition and measured after 120 mins by radiometric Hot-SpotSM Kinase assay relative to control
T1 sequence (whole entry): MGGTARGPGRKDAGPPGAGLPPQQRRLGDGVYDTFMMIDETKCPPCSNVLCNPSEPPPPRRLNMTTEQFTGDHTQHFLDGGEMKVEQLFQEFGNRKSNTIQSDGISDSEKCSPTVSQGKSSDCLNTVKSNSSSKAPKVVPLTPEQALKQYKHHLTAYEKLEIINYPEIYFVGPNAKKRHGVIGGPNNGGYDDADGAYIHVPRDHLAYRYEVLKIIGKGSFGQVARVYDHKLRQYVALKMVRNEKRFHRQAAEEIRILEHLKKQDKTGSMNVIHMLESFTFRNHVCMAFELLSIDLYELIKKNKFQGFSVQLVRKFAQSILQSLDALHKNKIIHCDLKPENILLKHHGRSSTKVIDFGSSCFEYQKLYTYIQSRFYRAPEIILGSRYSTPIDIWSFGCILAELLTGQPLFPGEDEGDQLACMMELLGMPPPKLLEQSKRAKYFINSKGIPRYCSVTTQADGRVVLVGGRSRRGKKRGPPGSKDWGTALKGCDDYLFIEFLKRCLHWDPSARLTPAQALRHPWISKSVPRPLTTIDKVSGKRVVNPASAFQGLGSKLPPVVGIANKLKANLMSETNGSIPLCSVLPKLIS

[2] = molecular target: T2, Mitogen-activated protein kinase kinase kinase 2 (Homo sapiens) (UniProt Q9Y2U5); experiment: Inhibition of human MEKK2 assessed as enzyme activity at 1 uM using myelin basic protein as substrate preincubated for 20 mins followed by [gamma-33P]-ATP addition and measured after 120 mins by radiometric Hot-SpotSM Kinase assay relative to control
T2 sequence (whole entry): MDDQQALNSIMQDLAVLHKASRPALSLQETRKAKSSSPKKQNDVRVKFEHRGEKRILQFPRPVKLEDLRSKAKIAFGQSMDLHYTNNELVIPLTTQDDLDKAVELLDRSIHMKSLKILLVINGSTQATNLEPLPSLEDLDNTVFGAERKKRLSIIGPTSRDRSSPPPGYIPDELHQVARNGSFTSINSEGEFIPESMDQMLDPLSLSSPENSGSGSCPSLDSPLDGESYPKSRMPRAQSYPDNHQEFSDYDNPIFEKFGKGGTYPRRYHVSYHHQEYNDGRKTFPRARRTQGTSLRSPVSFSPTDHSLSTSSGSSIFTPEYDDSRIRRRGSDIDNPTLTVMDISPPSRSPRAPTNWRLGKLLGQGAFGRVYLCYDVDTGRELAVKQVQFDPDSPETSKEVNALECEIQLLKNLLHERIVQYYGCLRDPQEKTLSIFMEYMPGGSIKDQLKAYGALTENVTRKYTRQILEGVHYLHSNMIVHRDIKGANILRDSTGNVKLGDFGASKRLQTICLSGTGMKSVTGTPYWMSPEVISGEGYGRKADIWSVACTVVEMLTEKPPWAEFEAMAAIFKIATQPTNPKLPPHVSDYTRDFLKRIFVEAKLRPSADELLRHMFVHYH

[3] = molecular target: T3, Serine/threonine-protein kinase LATS1 (Homo sapiens) (UniProt O95835); experiment: Inhibition of human LATS1 assessed as enzyme activity at 1 uM using KKRNRRLSVA as substrate preincubated for 20 mins followed by [gamma-33P]-ATP addition and measured after 120 mins by radiometric Hot-SpotSM Kinase assay relative to control
T3 sequence (whole entry): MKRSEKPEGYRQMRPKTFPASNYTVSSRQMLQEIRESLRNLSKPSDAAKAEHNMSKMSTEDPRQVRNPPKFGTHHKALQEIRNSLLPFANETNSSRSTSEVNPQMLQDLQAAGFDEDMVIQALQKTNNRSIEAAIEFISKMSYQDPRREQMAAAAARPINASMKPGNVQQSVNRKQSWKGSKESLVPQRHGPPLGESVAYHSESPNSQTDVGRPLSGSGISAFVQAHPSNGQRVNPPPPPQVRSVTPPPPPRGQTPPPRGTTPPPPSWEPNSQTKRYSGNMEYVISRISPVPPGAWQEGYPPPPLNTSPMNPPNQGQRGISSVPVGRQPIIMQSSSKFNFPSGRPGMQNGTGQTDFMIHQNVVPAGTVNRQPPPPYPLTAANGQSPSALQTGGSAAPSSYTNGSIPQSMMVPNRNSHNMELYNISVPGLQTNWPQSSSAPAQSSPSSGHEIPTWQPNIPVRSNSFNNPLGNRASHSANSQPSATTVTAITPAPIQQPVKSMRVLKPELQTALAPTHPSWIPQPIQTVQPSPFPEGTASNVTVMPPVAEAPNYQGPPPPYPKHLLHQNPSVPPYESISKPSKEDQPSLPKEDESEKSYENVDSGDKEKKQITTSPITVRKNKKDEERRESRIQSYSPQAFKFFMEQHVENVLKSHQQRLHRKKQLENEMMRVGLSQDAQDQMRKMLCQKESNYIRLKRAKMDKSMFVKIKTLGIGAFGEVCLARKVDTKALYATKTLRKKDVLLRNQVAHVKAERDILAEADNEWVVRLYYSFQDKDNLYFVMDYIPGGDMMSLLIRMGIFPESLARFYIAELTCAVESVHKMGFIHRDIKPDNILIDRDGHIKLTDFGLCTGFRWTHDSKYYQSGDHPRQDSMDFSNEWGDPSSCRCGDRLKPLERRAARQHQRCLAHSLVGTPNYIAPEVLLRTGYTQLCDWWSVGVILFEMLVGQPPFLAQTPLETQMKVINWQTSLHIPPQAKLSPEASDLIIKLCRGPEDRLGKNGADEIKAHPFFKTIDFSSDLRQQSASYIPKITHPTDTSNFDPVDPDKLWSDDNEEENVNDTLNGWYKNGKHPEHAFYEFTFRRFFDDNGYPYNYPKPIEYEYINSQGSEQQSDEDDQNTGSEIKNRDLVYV

Structure (SMILES) | Activity [1] | Activity [2] | Activity [3]
CC[C@H](Nc1ncnc2[nH]cnc12)c1nc2cccc(F)c2c(=O)n1-c1ccccc1 | 96.9% | 101% | 95.4%
C[C@H](Nc1ncnc2nc[nH]c12)c1cc2cccc(Cl)c2c(=O)n1-c1ccccc1 | 97.8% | 94.9% | 99.8%
CC(C)Oc1ccc(-c2nn([C@@H](C)c3oc4ccc(F)cc4c(=O)c3-c3cccc(F)c3)c3ncnc(N)c23)cc1F [UMBRALISIB] | 96.9% | 108% | 96.3%
